In ChEMBL document CHEMBL4507266, “Data for DCP probe BAY-784” (2021):

Tests used:
[1] = target: T1, Muscarinic acetylcholine receptor M1 (Homo sapiens) (UniProt P11229); settings: Compound concentration 10.0 uM
T1 sequence (whole entry): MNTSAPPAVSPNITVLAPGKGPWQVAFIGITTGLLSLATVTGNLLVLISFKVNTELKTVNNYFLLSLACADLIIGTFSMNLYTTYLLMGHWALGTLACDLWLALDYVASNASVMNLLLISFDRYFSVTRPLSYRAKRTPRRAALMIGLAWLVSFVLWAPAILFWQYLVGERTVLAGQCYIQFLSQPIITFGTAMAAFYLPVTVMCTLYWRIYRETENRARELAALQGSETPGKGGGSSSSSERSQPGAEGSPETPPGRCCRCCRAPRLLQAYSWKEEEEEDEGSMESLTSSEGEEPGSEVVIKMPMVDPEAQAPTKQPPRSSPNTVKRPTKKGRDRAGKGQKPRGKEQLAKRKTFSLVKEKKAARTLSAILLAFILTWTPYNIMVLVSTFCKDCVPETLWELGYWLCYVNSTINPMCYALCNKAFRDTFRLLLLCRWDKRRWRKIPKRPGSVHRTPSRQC

[2] = target: Cytoplasmic tyrosine-protein kinase BMX (Homo sapiens) (UniProt P51813); settings: Compound concentration 1000.0 nM
[3] = target: TRAF2 and NCK-interacting protein kinase (Homo sapiens) (UniProt Q9UKE5); settings: Compound concentration 1000.0 nM
[4] = target: Serine/threonine-protein kinase Nek10 (Homo sapiens) (UniProt Q6ZWH5); settings: Compound concentration 1000.0 nM
[5] = target: Serine/threonine-protein kinase PAK 4 (Homo sapiens) (UniProt O96013); settings: Compound concentration 1000.0 nM
[6] = system: Epidermal growth factor receptor (Homo sapiens), P00533 [L861Q]; settings: Compound concentration 1000.0 nM
[7] = target: Cyclin-dependent kinase 4 (Homo sapiens) (UniProt P11802); settings: Compound concentration 1000.0 nM
[8] = system: Tyrosine-protein kinase ABL1 (Homo sapiens), P00519 [Y253F]; settings: Compound concentration 1000.0 nM
[9] = target: Cyclin-dependent kinase 3 (Homo sapiens) (UniProt Q00526); settings: Compound concentration 1000.0 nM
[10] = system: Tyrosine-protein kinase ABL1 (Homo sapiens), P00519 [E255K]; settings: Compound concentration 1000.0 nM
[11] = target: Muscarinic acetylcholine receptor M3 (Homo sapiens) (UniProt P20309); settings: Compound concentration 10.0 uM
[12] = system: Phosphatidylinositol 4,5-bisphosphate 3-kinase catalytic subunit alpha isoform (Homo sapiens), P42336 [E545A]; settings: Compound concentration 1000.0 nM
Sequence of Phosphatidylinositol 4,5-bisphosphate 3-kinase catalytic subunit alpha isoform (Homo sapiens), P42336 [E545A] (P42336 whole entry E545A, canonical isoform): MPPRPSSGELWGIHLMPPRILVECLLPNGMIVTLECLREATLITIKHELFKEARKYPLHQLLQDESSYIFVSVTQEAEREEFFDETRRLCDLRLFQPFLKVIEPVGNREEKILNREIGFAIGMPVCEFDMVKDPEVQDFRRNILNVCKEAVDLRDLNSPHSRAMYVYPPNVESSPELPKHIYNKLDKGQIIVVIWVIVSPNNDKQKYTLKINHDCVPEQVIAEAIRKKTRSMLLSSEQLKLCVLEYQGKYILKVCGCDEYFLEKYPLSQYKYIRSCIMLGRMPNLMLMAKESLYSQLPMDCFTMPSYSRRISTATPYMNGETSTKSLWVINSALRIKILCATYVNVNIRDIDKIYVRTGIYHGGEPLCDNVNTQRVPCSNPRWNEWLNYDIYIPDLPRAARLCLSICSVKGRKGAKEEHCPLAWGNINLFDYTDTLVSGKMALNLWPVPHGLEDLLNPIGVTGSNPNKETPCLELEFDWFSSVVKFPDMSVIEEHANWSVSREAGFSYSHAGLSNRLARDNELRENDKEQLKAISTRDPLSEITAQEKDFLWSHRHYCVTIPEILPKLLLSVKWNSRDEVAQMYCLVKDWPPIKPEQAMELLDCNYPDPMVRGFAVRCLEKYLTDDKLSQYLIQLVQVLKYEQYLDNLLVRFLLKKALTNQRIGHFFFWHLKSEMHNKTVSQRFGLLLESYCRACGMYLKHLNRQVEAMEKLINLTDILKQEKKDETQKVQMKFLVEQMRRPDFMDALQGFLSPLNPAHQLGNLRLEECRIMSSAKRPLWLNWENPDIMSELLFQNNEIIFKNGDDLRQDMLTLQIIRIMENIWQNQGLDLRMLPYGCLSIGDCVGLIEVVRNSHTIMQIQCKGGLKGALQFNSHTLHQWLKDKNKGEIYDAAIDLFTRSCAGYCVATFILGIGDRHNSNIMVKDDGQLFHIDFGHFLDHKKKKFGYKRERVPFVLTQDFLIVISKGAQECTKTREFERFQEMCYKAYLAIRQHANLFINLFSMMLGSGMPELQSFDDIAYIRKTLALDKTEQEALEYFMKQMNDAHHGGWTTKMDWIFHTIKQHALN

[13] = target: Testis-specific serine/threonine-protein kinase 3 (Homo sapiens) (UniProt Q96PN8); settings: Compound concentration 1000.0 nM
[14] = target: MAP/microtubule affinity-regulating kinase 3 (Homo sapiens) (UniProt P27448); settings: Compound concentration 1000.0 nM
[15] = target: Tyrosine-protein kinase FRK (Homo sapiens) (UniProt P42685); settings: Compound concentration 1000.0 nM
[16] = target: Serine/threonine-protein kinase D2 (Homo sapiens) (UniProt Q9BZL6); settings: Compound concentration 1000.0 nM
[17] = target: Tyrosine-protein kinase Fer (Homo sapiens) (UniProt P16591); settings: Compound concentration 1000.0 nM
[18] = target: Serine/threonine-protein kinase Nek3 (Homo sapiens) (UniProt P51956); settings: Compound concentration 1000.0 nM
[19] = target: NT-3 growth factor receptor (Homo sapiens) (UniProt Q16288); settings: Compound concentration 1000.0 nM
[20] = target: Serine/threonine-protein kinase TAO2 (Homo sapiens) (UniProt Q9UL54); settings: Compound concentration 1000.0 nM
[21] = target: 5-hydroxytryptamine receptor 7 (Homo sapiens) (UniProt P34969); settings: Compound concentration 10.0 uM
[22] = target: Wee1-like protein kinase (Homo sapiens) (UniProt P30291); settings: Compound concentration 1000.0 nM
[23] = target: Fibroblast growth factor receptor 2 (Homo sapiens) (UniProt P21802); settings: Compound concentration 1000.0 nM
[24] = target: Transient receptor potential cation channel subfamily M member 6 (Homo sapiens) (UniProt Q9BX84); settings: Compound concentration 1000.0 nM
[25] = target: Rho-associated protein kinase 2 (Homo sapiens) (UniProt O75116); settings: Compound concentration 1000.0 nM
Sequence of Rho-associated protein kinase 2 (Homo sapiens) (O75116 whole entry, looked up): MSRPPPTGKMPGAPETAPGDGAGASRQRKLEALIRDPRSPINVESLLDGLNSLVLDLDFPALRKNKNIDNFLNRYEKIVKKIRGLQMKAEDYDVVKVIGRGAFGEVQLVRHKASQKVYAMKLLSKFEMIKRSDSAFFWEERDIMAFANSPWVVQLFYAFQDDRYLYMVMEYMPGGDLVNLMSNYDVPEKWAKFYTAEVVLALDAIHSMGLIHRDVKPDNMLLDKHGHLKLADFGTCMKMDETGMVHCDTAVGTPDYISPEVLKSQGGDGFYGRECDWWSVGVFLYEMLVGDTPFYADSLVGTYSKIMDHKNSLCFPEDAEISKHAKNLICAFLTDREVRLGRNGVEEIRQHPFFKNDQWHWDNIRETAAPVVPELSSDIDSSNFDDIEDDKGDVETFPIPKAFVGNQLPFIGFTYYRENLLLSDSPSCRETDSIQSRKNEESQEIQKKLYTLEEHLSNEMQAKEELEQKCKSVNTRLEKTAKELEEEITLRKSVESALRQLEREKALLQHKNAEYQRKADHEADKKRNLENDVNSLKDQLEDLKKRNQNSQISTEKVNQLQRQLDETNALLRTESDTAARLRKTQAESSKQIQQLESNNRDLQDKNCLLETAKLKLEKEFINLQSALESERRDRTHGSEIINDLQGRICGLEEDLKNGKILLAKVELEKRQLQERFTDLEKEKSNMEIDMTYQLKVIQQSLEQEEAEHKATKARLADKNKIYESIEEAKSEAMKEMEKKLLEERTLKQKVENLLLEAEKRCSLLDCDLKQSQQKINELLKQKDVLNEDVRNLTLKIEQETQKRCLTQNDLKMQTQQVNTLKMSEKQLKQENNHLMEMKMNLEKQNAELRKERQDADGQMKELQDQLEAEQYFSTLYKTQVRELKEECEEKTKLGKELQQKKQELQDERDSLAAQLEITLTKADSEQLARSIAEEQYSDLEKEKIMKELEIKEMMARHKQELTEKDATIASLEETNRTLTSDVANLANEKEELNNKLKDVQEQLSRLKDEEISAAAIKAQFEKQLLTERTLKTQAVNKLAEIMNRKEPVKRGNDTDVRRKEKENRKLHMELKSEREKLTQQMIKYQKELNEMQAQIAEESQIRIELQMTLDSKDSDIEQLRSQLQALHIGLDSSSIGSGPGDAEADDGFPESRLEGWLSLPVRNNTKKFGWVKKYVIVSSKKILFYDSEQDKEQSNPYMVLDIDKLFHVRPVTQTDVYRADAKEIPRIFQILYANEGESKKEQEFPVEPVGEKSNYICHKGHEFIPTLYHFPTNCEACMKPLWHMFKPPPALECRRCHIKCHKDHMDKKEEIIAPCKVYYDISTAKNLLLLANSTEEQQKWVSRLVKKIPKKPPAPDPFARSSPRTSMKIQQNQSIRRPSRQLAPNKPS

[26] = target: Receptor tyrosine-protein kinase erbB-4 (Homo sapiens) (UniProt Q15303); settings: Compound concentration 1000.0 nM
[27] = target: Casein kinase I isoform delta (Homo sapiens) (UniProt P48730); settings: Compound concentration 1000.0 nM
Sequence of Casein kinase I isoform delta (Homo sapiens) (P48730 whole entry, looked up, canonical isoform): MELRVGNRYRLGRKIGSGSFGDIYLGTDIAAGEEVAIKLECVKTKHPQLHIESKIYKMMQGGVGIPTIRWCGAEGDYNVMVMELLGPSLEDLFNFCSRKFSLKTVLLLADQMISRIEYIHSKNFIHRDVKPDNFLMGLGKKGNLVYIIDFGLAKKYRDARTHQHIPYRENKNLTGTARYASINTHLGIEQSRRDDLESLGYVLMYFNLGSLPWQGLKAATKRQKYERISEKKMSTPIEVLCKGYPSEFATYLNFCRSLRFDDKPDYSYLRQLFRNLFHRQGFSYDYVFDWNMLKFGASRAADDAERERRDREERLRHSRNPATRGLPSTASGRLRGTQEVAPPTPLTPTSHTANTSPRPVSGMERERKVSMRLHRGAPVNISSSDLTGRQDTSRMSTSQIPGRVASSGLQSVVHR

[28] = target: Serine/threonine-protein kinase NLK (Homo sapiens) (UniProt Q9UBE8); settings: Compound concentration 1000.0 nM
[29] = target: Phosphatidylinositol 4,5-bisphosphate 3-kinase catalytic subunit delta isoform (Homo sapiens) (UniProt O00329); settings: Compound concentration 1000.0 nM
[30] = target: Tyrosine-protein kinase JAK2 (Homo sapiens) (UniProt O60674); settings: Compound concentration 1000.0 nM
[31] = target: SRSF protein kinase 1 (Homo sapiens) (UniProt Q96SB4); settings: Compound concentration 1000.0 nM
[32] = target: Ribosomal protein S6 kinase alpha-6 (Homo sapiens) (UniProt Q9UK32); settings: Compound concentration 1000.0 nM
Sequence of Ribosomal protein S6 kinase alpha-6 (Homo sapiens) (Q9UK32 whole entry): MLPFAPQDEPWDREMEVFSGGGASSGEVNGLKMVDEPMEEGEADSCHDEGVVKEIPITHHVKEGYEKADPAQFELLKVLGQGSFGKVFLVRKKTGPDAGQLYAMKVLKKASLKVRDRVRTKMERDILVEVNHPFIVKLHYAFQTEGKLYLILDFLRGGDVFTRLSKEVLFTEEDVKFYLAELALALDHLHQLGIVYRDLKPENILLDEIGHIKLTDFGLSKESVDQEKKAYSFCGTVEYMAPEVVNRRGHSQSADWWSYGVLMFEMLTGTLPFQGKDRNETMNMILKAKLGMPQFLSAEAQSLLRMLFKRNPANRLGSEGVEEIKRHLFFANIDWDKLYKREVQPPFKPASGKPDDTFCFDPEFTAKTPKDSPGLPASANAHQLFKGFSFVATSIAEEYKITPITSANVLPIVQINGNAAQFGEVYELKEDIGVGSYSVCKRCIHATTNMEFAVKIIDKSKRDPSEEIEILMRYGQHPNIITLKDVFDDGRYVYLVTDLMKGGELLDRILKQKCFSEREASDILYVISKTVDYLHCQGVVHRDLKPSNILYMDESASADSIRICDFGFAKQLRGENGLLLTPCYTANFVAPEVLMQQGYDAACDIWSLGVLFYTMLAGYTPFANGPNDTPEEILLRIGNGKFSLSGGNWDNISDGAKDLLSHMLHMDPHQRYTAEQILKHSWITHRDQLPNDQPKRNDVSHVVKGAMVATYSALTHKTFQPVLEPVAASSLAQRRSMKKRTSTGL

[33] = target: Interleukin-1 receptor-associated kinase 3 (Homo sapiens) (UniProt Q9Y616); settings: Compound concentration 1000.0 nM
[34] = target: Serine/threonine-protein kinase 36 (Homo sapiens) (UniProt Q9NRP7); settings: Compound concentration 1000.0 nM
[35] = target: Receptor-interacting serine/threonine-protein kinase 4 (Homo sapiens) (UniProt P57078); settings: Compound concentration 1000.0 nM
[36] = target: Serine/threonine-protein kinase 3 (Homo sapiens) (UniProt Q13188); settings: Compound concentration 1000.0 nM
[37] = target: Wee1-like protein kinase 2 (Homo sapiens) (UniProt P0C1S8); settings: Compound concentration 1000.0 nM
[38] = system: Receptor-type tyrosine-protein kinase FLT3 (Homo sapiens), P36888 [N841I]; settings: Compound concentration 1000.0 nM
[39] = target: Receptor tyrosine-protein kinase erbB-2 (Homo sapiens) (UniProt P04626); settings: Compound concentration 1000.0 nM
Sequence of Receptor tyrosine-protein kinase erbB-2 (Homo sapiens) (P04626 whole entry): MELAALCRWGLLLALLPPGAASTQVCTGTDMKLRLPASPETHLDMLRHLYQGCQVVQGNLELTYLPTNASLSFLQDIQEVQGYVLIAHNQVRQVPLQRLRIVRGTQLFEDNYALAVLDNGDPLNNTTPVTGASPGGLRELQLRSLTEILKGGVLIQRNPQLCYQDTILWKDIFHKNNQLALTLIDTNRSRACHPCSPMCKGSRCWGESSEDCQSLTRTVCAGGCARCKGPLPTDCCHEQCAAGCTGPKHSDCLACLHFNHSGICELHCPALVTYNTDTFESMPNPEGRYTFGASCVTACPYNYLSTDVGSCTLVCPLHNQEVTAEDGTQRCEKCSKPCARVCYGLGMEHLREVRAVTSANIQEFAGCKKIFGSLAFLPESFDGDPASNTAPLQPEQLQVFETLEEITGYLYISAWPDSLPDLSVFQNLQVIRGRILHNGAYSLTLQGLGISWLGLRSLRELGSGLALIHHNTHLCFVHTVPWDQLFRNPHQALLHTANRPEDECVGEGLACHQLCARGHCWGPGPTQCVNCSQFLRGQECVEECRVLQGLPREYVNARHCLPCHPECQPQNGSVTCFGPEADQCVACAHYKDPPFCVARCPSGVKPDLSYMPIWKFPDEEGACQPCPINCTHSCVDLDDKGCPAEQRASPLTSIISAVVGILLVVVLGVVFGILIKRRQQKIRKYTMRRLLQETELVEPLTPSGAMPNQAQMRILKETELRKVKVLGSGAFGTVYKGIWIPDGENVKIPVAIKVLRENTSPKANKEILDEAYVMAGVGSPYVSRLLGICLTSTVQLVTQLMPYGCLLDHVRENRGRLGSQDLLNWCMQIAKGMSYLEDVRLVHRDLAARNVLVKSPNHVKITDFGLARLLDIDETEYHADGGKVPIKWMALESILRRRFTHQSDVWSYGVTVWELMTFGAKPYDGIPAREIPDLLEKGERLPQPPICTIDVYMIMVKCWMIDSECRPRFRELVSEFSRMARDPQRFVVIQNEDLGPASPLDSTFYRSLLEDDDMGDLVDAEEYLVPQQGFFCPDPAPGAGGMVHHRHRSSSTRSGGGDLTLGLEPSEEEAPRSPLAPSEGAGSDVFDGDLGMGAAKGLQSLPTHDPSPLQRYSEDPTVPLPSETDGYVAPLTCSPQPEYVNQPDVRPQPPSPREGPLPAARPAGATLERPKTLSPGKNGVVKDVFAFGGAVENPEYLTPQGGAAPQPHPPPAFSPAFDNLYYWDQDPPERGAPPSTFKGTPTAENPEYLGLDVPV

Row | SMILES | inhibition [1] | residual activity [2] | residual activity [3] | residual activity [4] | residual activity [5] | residual activity [6] | residual activity [7] | residual activity [8] | residual activity [9] | residual activity [10] | inhibition [11] | residual activity [12] | residual activity [13] | residual activity [14] | residual activity [15] | residual activity [16] | residual activity [17] | residual activity [18] | residual activity [19] | residual activity [20] | also measured
1 | O=C(NCc1ncc(C(F)(F)F)cc1Cl)c1ccc2c(c1)C1(CCS(=O)(=O)CC1)[C@H](C1CC1)N2S(=O)(=O)c1ccc(F)cc1 [BAY-784] | -2.96% | 100% | 100% | 94% | 100% | 84% | 86% | 85% | 100% | 80% | 18.1% | 89% | 87% | 89% | 100% | 98% | 100% | 100% | 84% | 81% | inhibition [21]: -8.16%; residual activity [22]: 82%; residual activity [23]: 86%; residual activity [24]: 81%; residual activity [25]: 95%; residual activity [26]: 70%; residual activity [27]: 85%; residual activity [28]: 100%; residual activity [29]: 67%; residual activity [30]: 80%; residual activity [31]: 72%; residual activity [32]: 87%; residual activity [33]: 99%; residual activity [34]: 100%; residual activity [35]: 93%; residual activity [36]: 100%; residual activity [37]: 100%; residual activity [38]: 58%; residual activity [39]: 100%
2 | O=C(NCc1ncc(C(F)(F)F)cc1Cl)c1ccc2c(c1)C1(CCS(=O)(=O)CC1)[C@@H](C1CC1)N2S(=O)(=O)c1ccc(F)cc1 [BAY-786] | -3.7% | 92% | 71% | 83% | 89% | 76% | 82% | 100% | 41% | 100% | 14.4% | 90% | 97% | 100% | 99% | 90% | 100% | 100% | 71% | 64% | inhibition [21]: -4.83%; residual activity [22]: 100%; residual activity [23]: 98%; residual activity [24]: 92%; residual activity [25]: 93%; residual activity [26]: 72%; residual activity [27]: 93%; residual activity [28]: 89%; residual activity [29]: 67%; residual activity [30]: 70%; residual activity [31]: 96%; residual activity [32]: 100%; residual activity [33]: 100%; residual activity [34]: 100%; residual activity [35]: 72%; residual activity [36]: 87%; residual activity [37]: 100%; residual activity [38]: 78%; residual activity [39]: 100%
